Laboratory results from the supplement of paper PMC10307832.

Experiments:
Test in all cases: relative viability (nuclei count vs DMSO), 5 days (fraction); higher = more cells survive
Quizartinib + Olaparib = compound: CC(C)(C)c1cc(NC(=O)Nc2ccc(-c3cn4c(n3)sc3cc(OCCN5CCOCC5)ccc34)cc2)no1 [Quizartinib] + O=C(c1cc(Cc2n[nH]c(=O)c3ccccc23)ccc1F)N1CCN(C(=O)C2CC2)CC1 [Olaparib] (partner 8 µM)
In short: (§1)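 Relative viability divides the nuclei count in treated wells by that in vehicle wells. Lung cancer cell lines were seeded in 1536-well plates, dosed by pin tool the next day, and fixed and stained after 5 days in one step with final 0.05% Triton X-100, 1% formaldehyde and 1 ug/ml Hoechst. Dosing was a single drug or a fixed anchor-drug dose plus five library-drug doses (not always all listed) in √10 steps, and values are medians of duplicate plates imaged at 4×.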

YM155 + Pictilisib = compound: COCC[n+]1c2c(n(Cc3cnccn3)c1C)C(=O)c1ccccc1C2=O [YM155] + CS(=O)(=O)N1CCN(Cc2cc3nc(-c4cccc5[nH]ncc45)nc(N4CCOCC4)c3s2)CC1 [Pictilisib] (partner 1 µM)
In short: as §1

YM155 + Vorinostat = compound: COCC[n+]1c2c(n(Cc3cnccn3)c1C)C(=O)c1ccccc1C2=O [YM155] + O=C(CCCCCCC(=O)Nc1ccccc1)NO [Vorinostat] (partner 1 µM)
In short: as §1

Quizartinib + Pemetrexed = compound: CC(C)(C)c1cc(NC(=O)Nc2ccc(-c3cn4c(n3)sc3cc(OCCN5CCOCC5)ccc34)cc2)no1 [Quizartinib] + Nc1nc2[nH]cc(CCc3ccc(C(=O)N[C@@H](CCC(=O)O)C(=O)O)cc3)c2c(=O)[nH]1 [Pemetrexed] (partner 0.2 µM)
In short: as §1

Row | Cell Line | relative viability (Quizartinib + Olaparib; first compound 0.001 µM) | relative viability (Quizartinib + Olaparib; first compound 0.003162 µM) | relative viability (Quizartinib + Olaparib; first compound 0.01 µM) | relative viability (Quizartinib + Olaparib; first compound 0.03162 µM) | relative viability (Quizartinib + Olaparib; first compound 0.1 µM) | relative viability (YM155 + Pictilisib; first compound 0.002 µM) | relative viability (YM155 + Pictilisib; first compound 0.006325 µM) | relative viability (YM155 + Pictilisib; first compound 0.02 µM) | relative viability (YM155 + Pictilisib; first compound 0.06325 µM) | relative viability (YM155 + Vorinostat; first compound 0.002 µM) | relative viability (YM155 + Vorinostat; first compound 0.006325 µM) | relative viability (YM155 + Vorinostat; first compound 0.02 µM) | relative viability (YM155 + Vorinostat; first compound 0.06325 µM) | relative viability (Quizartinib + Pemetrexed; first compound 0.001 µM) | relative viability (Quizartinib + Pemetrexed; first compound 0.003162 µM) | relative viability (Quizartinib + Pemetrexed; first compound 0.01 µM) | relative viability (Quizartinib + Pemetrexed; first compound 0.03162 µM) | relative viability (Quizartinib + Pemetrexed; first compound 0.1 µM)
1 | NCI-H1395 | 0.476 | 0.455 | 0.489 | 0.444 | 0.512 | 0.587 | 0.546 | 0.622 | 0.673 | 0.691 | 0.727 | 0.864 | 0.696 | 0.802 | 0.927 | 0.717 | 0.74 | 1
2 | NCI-H2405 | 0.851 | 0.807 | 0.92 | 0.832 | 0.902 | 0.407 | 0.316 | 0.395 | 0.312 | 0.973 | 0.964 | 0.917 | 0.533 | 0.961 | 1.04 | 1.02 | 1.08 | 1.15
3 | SW 900 | 0.803 | 0.871 | 0.968 | 0.921 | 0.885 | – | – | – | – | – | 0.465 | 0.582 | 0.408 | 0.435 | 0.488 | 0.422 | 0.485 | 0.483
4 | NCI-H2009 | 0.658 | 0.64 | 0.628 | 0.54 | 0.597 | 0.8 | 0.796 | 0.852 | 0.57 | 0.685 | 0.693 | 0.726 | 0.621 | 0.946 | 0.932 | 1.05 | 1.02 | 1.07
5 | EPLC-272H | 0.946 | 0.635 | 0.861 | 0.658 | 0.434 | 0.307 | 0.268 | 0.286 | 0.328 | 0.443 | 0.384 | 0.357 | 0.55 | 0.255 | 0.361 | 0.4 | 0.26 | 0.305
